Test results as given in US7741337B2, “Azonafide derivatives, methods for their production and pharmaceutical compositions therefrom” (Unibioscreen S.A., priority 2005, dated 2010).
pIC50: −log10 of the molar value.

Experiments:
[1] = system: PC3 (prostate cancer) cells; test: Effect on cell migration, PC3; format: cell-based; settings: Homo sapiens, 22 hours on the 25% of most motile cells, p value in same cell, read-out: Maximum effects (cell migration); for Emax at 0.01 µM: at 10^−8 M; for Emax at 1 µM: at 10^−6 M
Protocol: (§1) Cells of different cancer lines, i.e. U-373 MG (Glioma cancer), PC3 (prostate cancer and A549 (Lung cancer) were seeded on culture flask 48 hours before the migration experiment. On the test day, cells were treated with or without the azonafide derivatives mentioned in table 3 in closed Falcon dishes containing a buffered medium at a controlled temperature (37.0±0.1° C.) for 12 or 22 hours, as noted in the right column of table 3. The azonafide derivatives were used at three non-cytotoxic concentrations (10^−6 M, 10^−7, 10^−8 M). Migration of the cells was observed by means of a CCD-camera mounted on a phase-contrast microscope. Statistical analysis of the migration, with the non-parametric Mann-Whitney test, was established for 25% and 50% of the most motile cells and for the entire cell population.

[2] = system: U-373 MG, PC-3 and/or A549 cancer cells; test: Effect on cell migration, summary of table 3; format: cell-based, human; settings: for migration level of cancer cells: U-373 MG, PC-3 and/or A549 cancer cells at the non-cytotoxic concentrations of this study; for cell migration activity compared with the closest compounds known in the art: comparison drawn from table 3
Protocol: as §1

[3] = system: human cancer cell lines Hs683, U-373MG, HCT-15, LoVo, A549 and MCF-7; test: MTT test, effect on overall cell growth (mean of six cell lines, examples 3 to 26); format: cell-based; settings: mean of six cell lines Hs683, U-373MG, A549, MCF-7, 72 hours incubation, range of molar concentrations resulting in 50% inhibition of overall tumor cells growth
Protocol: (§2) MTT tests were performed in order to rapidly, i.e. within 5 days, measure the effect of azonafide derivatives of this invention on the overall cell growth. The test measures the number of metabolically active living cells that are able to transform the yellow product 3-(4,5-dimethylthiazol-2-yl)-2,5-diphenyl tetrazolium bromide (herein referred as MTT) into the blue product formazan dye by mitochondrial reduction. The amount of formazan obtained at the end of the experiment, measured by means of a spectrophotometer, is directly proportional to the number of living cells. Optical density determination thus enables a quantitative measurement of the effect of the investigated compounds as compared to the control condition (untreated cells) and/or to other reference compounds.
(§3) Height human cancer cell lines described in table 1 were used in the following MTT tests. These cell lines cover six histological cancer types, being prostate, glioma, pancreas, colon, lung and breast cancers. Cells were allowed to grow in 96-well micro-wells with a flat bottom with an amount of 100 μl of cell suspension per well with 1,000 to 4,000 cells/well depending on the cell type used. Each cell line was seeded in a well known MEM 5% serum culture medium.
(§4) The detailed experimental procedure was as following: after a 24-hour period of incubation at 37° C., the culture medium was replaced by 100 μl of fresh medium in which the compound to be tested was dissolved at the following molar concentrations: 10^−9 M, 5.10^−9 M, 10^−8 M, 5.10^−8 M, 10^−7 M, 5.10^−7 M, 10^−6 M, 5.10^−6 M and 10^−5 M. Each experiment was repeated 6 times.
(§5) After 72 hours of incubation at 37° C. with (experimental conditions) or without (control condition) the compound to be tested, the medium was replaced by 100 μl MTT dissolved in RPMI at a concentration of 1 mg/ml. The micro-wells were subsequently incubated during 3 hours at 37° C. and centrifuged at 400 g during 10 minutes. MTT was removed and formazan crystals formed were dissolved in 100 μl DMSO. The micro-wells were shaken for 5 minutes and read on a spectrophotometer at wavelengths of 570 nm (maximum formazan absorbance) and 630 nm (back-ground noise).
(§6) For each experimental condition, the mean optical density was calculated, as well as the percentage of remaining living cells in comparison with the control.
(§7) IC50 values for compounds of examples 3 to 26 were obtained on cell lines Hs683, U-373MG, HCT-15, LoVo, A549 and MCF-7 described in Table 1. IC50 values for compounds from examples 27 to 45 were obtained on cell lines PC3, U-373MG, BxPC3, LoVo, A549 and MCF-7 described in Table 1.

[4] = system: A549 (Lung cancer) cells; test: Effect on cell migration, A549; format: cell-based; settings: Homo sapiens, p value in same cell, read-out: Maximum effects (cell migration); for Emax at 0.01 µM: 22 hours on the 25% of most motile cells, at 10^−8 M
Protocol: as §1

[5] = system: U-373 MG (Glioma cancer) cells; test: Effect on cell migration, U-373MG; format: cell-based; settings: Homo sapiens, U373 MG, 22 hours on the 25% of most motile cells, p value in same cell, read-out: Maximum effects (cell migration); for Emax at 1 µM: at 10^−6 M
Protocol: as §1

[6] = system: human cancer cell lines PC3, U-373MG, BxPC3, LoVo, A549 and MCF-7; test: MTT test, effect on overall cell growth (mean of six cell lines, examples 27 to 45); format: cell-based; settings: mean of six cell lines PC3, U-373MG, A549, MCF-7, 72 hours incubation, range of molar concentrations resulting in 50% inhibition of overall tumor cells growth
Protocol: as §2, §3, §4, §5, §6, §7

[7] = system: primary human solid tumours; settings: in vitro; Ajani et al. Invest New Drugs (1988) 6:79-83; cited from earlier work
[8] = system: human tumour xenografts with colon, lung and mammary cancers; settings: mice with colon; cited from earlier work
[9] = system: leukemia models; settings: mice; cited from earlier work
[10] = patients receiving five daily doses of the drug; cited from earlier work
[11] = system: human Myeloma 8226/DOX 40 cell line; settings: U.S. Pat. No. 5,635,506; cited from earlier work
[12] = system: multidrug resistant tumors; settings: in vitro; U.S. Pat. No. 5,635,506; cited from earlier work
[13] = system: tumors; settings: mice; compared with amonafide; U.S. Pat. No. 5,635,506; cited from earlier work
[14] = compared with amonafide; U.S. Pat. No. 5,635,506; cited from earlier work

## CN(C)CCN1C(=O)c2cccc3cc4c(N=Cc5cc(O)ccc5O)cccc4c(c23)C1=O (stereo in doubt) [Example 6, 8-{[(1Z)-(2,5-dihydroxyphenyl)methylidene]amino}-2-[2-(dimethylamino)ethyl]-1H-dibenzo[de,h]isoquinoline-1,3(2H)-dione]
[1]
  Emax at 0.01 µM: -24%
other
  melting point: 205 °C
[2]
  migration level of cancer cells: induced a decrease in the migration level
  cell migration activity compared with the closest compounds known in the art: significantly greater cell migration activity than the closest compounds known in the art, or similar cell migration activity at significantly lower concentrations
[3]
  pIC50: 5.30 to 6.00
[4]
  Emax at 0.01 µM: -29%

## CN(C)CCN1C(=O)c2cccc3cc4cccc(/N=C\c5cc(O)ccc5O)c4c(c23)C1=O [Example 5, 11-{[(1Z)-(2,5-dihydroxyphenyl)methylidene}amino]-2-[2-(dimethylamino)ethyl]-1H-dibenzo[de,h]isoquinoline-1,3(2H)-dione]
other
  melting point: 225 °C
[2]
  migration level of cancer cells: induced a decrease in the migration level
  cell migration activity compared with the closest compounds known in the art: significantly greater cell migration activity than the closest compounds known in the art, or similar cell migration activity at significantly lower concentrations
[3]
  pIC50: < 5.00
[4]
  Emax at 0.01 µM: -47%

## CN(C)CCN1C(=O)c2cccc3cc4cccc(/N=C\c5ccc6c(c5)OCO6)c4c(c23)C1=O [Example 7, 11-{[(1Z)-1,3-benzodioxol-5-ylmethylidene]amino}-2-[2-(dimethylamino)ethyl]-1H-dibenzo[de,h]isoquinoline-1,3(2H)-dione]
other
  melting point: 198 °C
[2]
  migration level of cancer cells: induced a decrease in the migration level
[3]
  pIC50: < 5.00
[4]; 22 hours on the 100% of cells, at 10^−6 M
  Emax at 1 µM: -20%

## CN(C)CCN1C(=O)c2cccc3cc4cccc(NC(=O)Cc5ccc(Cl)cc5)c4c(c23)C1=O [Example 11, 2-(4-chlorophenyl)-N-{2-[2-(dimethylamino)ethyl]-1,3-dioxo-2,3-dihydro-1H-dibenzo[de,h]isoquinolin-11-yl}acetamide]
[1]
  Emax at 1 µM: -37%
[1]; at 10^−7 M
  Emax at 0.1 µM: -27%
[5]
  Emax at 1 µM: -18%
[2]
  migration level of cancer cells: induced a decrease in the migration level
  cell migration activity compared with the closest compounds known in the art: significantly greater cell migration activity than the closest compounds known in the art, or similar cell migration activity at significantly lower concentrations
[3]
  pIC50: < 5.00

## CCCCCNC(=O)Nc1cccc2cc3cccc4c3c(c12)C(=O)N(CCN(C)C)C4=O [Example 13, 1-{2-[2-(dimethylamino)ethyl]-1,3-dioxo-2,3-dihydro-1H-dibenzo[de,h]isoquinolin-11-yl}-3-pentylurea]
[1]
  Emax at 0.01 µM: -43%
[5]; at 10^−7 M
  Emax at 0.1 µM: -24%
[2]
  migration level of cancer cells: induced a decrease in the migration level
  cell migration activity compared with the closest compounds known in the art: significantly greater cell migration activity than the closest compounds known in the art, or similar cell migration activity at significantly lower concentrations
[3]
  pIC50: 5.00 to 5.30

## CN(C)CCN1C(=O)c2cccc3cc4cccc(NC(=S)Nc5ccc(OC(F)(F)F)cc5)c4c(c23)C1=O [Example 31, 1-{2-[2-(dimethylamino)ethyl]-1,3-dioxo-2,3-dihydro-1H-dibenzo[de,h]isoquinolin-11-yl}-3-[4-(trifluoromethoxy)phenyl]thiourea]
[6]
  pIC50: < 5.00
[1]
  Emax at 1 µM: -30%
[5]
  Emax at 1 µM: -60%
[2]
  migration level of cancer cells: induced a decrease in the migration level
  cell migration activity compared with the closest compounds known in the art: significantly greater cell migration activity than the closest compounds known in the art, or similar cell migration activity at significantly lower concentrations

## CN(C)CCN1C(=O)c2cccc3cc(N)cc(c23)C1=O [amonafide]
[7]
  activity in primary human solid tumours: poor activity
[8]
  activity in human tumour xenografts: no activity
[9]
  activity in leukemia models: only moderate activity
[10]
  myelotoxicity: substantial myelotoxicity leading to some deaths

## CN(C)CCN1C(=O)c2cccc3cc4ccccc4c(c23)C1=O [azonafide, 2-[2′-(dimethylamino)ethyl]-1,2-dihydro-3H-dibenz(deh)isoquinoline-1,3-dione]
[11]
  cross resistance: possible three-fold cross resistance
[12]
  anti-tumor activity on multidrug resistant tumors: showed anti-tumor activity
[13]
  appearance of tumors and tumor growth: delay the appearance of tumors and to reduce tumor growth in mice with more efficiency than amonafide
[14]
  cardiotoxicity: higher cardiotoxicity than amonafide
